Read-outs that look alike come from different tables or passages of the source.
Tests used:
Experiment in all cases: KinomeScan kinase panel, single concentration 10 µM
Format in all cases: binding
KinomeScan kinase panel [1] = molecular target: T1, KinomeScan kinase panel (Homo sapiens, UniProt O94806); conditions: read-out: score (%)
T1 construct: purchased DiscoveRx (KinomeScan)
T1 sequence (O94806 1-890): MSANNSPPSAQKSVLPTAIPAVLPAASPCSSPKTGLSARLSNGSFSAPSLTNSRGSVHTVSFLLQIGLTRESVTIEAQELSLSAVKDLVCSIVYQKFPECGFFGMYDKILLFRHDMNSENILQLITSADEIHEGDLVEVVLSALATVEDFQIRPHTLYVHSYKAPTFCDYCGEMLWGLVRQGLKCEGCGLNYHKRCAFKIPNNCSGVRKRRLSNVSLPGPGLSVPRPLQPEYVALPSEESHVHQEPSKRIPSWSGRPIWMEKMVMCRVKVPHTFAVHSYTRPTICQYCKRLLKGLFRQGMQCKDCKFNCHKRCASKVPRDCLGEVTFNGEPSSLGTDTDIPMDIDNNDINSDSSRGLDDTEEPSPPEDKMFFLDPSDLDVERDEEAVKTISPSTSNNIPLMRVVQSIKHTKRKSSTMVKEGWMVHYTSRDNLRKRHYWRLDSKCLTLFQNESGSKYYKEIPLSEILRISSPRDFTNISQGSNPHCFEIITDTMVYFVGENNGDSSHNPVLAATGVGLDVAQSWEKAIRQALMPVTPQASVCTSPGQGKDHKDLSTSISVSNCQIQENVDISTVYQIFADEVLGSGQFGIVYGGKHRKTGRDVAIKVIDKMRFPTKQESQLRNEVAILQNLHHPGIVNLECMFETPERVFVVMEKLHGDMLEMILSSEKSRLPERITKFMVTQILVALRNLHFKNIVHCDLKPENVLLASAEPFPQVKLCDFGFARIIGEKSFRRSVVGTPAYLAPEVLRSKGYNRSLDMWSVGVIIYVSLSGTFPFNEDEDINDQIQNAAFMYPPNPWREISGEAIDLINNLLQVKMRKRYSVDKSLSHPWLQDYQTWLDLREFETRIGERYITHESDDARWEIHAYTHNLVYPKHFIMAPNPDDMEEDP

KinomeScan kinase panel [2] = molecular target: T2, KinomeScan kinase panel (Homo sapiens, UniProt O94921); conditions: PFTK1, 10 µM
T2 construct: purchased DiscoveRx (KinomeScan)

KinomeScan kinase panel [3] = molecular target: T3, KinomeScan kinase panel (Homo sapiens, UniProt Q9P289); conditions: MST4, 10 µM; read-out: score (%)
T3 construct: purchased DiscoveRx (KinomeScan)

KinomeScan kinase panel [4] = molecular target: T4, KinomeScan kinase panel (Homo sapiens, UniProt Q00535); conditions: CDK5, 10 µM; read-out: score (%)
T4 construct: purchased DiscoveRx (KinomeScan)

KinomeScan kinase panel [5] = molecular target: T5, KinomeScan kinase panel (Homo sapiens, UniProt O60674); conditions: 10 µM
T5 construct: purchased DiscoveRx (KinomeScan)

KinomeScan kinase panel [6] = molecular target: T6, KinomeScan kinase panel (Homo sapiens, UniProt O95835); conditions: LATS1, 10 µM; read-out: score (%)
T6 construct: purchased DiscoveRx (KinomeScan)
T6 sequence (O95835 1-1130): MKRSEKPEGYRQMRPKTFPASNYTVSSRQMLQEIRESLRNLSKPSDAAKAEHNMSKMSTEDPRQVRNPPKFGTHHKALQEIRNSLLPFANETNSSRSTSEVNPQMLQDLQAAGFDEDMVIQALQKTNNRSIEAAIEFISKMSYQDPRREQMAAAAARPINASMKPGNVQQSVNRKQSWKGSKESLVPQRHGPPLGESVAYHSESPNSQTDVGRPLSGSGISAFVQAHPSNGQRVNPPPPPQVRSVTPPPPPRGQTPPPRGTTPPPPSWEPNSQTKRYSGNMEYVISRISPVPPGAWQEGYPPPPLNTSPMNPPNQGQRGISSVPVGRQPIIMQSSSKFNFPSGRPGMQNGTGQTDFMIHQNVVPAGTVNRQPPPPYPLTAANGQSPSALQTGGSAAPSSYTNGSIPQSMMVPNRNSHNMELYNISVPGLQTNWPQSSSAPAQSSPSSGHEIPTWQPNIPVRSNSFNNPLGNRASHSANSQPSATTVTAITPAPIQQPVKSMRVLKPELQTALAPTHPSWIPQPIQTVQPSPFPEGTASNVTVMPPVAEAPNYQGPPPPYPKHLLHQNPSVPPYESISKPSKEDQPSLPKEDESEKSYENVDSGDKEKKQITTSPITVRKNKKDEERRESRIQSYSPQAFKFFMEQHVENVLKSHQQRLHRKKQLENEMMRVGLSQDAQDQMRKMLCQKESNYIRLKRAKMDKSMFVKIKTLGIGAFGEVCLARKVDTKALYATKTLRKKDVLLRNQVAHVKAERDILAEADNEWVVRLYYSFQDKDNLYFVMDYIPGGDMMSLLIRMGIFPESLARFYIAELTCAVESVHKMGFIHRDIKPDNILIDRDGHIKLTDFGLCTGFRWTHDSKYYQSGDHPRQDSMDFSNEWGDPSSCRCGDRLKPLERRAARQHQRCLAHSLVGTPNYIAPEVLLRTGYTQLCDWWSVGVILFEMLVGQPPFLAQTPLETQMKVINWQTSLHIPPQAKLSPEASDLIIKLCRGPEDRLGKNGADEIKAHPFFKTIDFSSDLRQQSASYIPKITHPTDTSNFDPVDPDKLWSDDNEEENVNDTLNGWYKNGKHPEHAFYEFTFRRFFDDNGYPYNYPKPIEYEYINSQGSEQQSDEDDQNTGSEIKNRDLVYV

KinomeScan kinase panel [7] = molecular target: T7, KinomeScan kinase panel (Homo sapiens, UniProt Q2M2I8); conditions: AAK1, 10 µM; read-out: score (%)
T7 construct: purchased DiscoveRx (KinomeScan)

KinomeScan kinase panel [8] = molecular target: T8, KinomeScan kinase panel (Homo sapiens, UniProt P29597)
T8 construct: purchased DiscoveRx (KinomeScan)

KinomeScan kinase panel [9] = molecular target: T9, KinomeScan kinase panel (Homo sapiens, UniProt P24941); conditions: CDK2, 10 µM
T9 construct: purchased DiscoveRx (KinomeScan)

KinomeScan kinase panel [10] = molecular target: T10, KinomeScan kinase panel (Homo sapiens, UniProt P19784); conditions: CSNK2A2, 10 µM; read-out: score (%)
T10 construct: purchased DiscoveRx (KinomeScan)

KinomeScan kinase panel [11] = molecular target: T11, KinomeScan kinase panel (Homo sapiens, UniProt Q9C098); conditions: DCAMKL3, 10 µM; read-out: score (%)
T11 construct: purchased DiscoveRx (KinomeScan)

KinomeScan kinase panel [12] = molecular target: T12, KinomeScan kinase panel (Homo sapiens, UniProt Q8N5S9); conditions: CAMKK1, 10 µM; read-out: score (%)
T12 construct: purchased DiscoveRx (KinomeScan)

[13] = kinase TYK2(JH1domain-catalytic), 10 µM

T10 sequence (P19784 whole entry): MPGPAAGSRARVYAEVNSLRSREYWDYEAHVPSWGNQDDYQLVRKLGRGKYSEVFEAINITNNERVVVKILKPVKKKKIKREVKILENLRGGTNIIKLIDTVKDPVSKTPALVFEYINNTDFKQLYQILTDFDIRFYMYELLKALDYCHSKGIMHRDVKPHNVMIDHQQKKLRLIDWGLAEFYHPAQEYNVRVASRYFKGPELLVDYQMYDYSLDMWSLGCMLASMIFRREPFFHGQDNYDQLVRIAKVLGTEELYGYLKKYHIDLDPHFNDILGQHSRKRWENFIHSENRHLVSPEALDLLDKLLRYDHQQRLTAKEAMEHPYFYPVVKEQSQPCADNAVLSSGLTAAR
T5 sequence (O60674 whole entry): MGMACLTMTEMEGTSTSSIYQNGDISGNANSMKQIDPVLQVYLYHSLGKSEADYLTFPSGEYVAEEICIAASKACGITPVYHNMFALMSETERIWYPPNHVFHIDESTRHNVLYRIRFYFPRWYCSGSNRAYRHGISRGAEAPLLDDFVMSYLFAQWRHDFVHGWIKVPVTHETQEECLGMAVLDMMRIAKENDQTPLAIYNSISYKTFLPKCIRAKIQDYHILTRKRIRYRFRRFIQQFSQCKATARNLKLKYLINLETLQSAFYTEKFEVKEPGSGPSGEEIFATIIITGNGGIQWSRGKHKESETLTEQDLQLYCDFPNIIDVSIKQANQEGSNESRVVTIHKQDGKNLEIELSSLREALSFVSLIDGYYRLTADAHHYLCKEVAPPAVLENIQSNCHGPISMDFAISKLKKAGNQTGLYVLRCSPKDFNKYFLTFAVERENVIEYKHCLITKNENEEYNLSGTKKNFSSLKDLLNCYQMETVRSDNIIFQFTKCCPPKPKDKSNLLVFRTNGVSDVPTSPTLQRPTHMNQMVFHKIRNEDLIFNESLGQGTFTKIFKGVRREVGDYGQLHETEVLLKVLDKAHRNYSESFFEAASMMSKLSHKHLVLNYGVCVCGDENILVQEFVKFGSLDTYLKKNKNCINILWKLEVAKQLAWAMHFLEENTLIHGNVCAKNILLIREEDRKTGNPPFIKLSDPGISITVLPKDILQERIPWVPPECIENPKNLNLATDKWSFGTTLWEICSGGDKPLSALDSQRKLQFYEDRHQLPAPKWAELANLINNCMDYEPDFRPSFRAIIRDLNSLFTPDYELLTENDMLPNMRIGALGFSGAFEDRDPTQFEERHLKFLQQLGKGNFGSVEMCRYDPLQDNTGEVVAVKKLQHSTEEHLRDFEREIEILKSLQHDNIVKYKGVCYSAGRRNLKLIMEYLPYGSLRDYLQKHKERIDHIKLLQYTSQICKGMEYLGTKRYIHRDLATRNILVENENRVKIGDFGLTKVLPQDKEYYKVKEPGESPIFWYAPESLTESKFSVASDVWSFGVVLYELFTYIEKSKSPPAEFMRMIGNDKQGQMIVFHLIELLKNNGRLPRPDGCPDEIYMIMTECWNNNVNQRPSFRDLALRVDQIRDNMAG
T3 sequence (Q9P289 whole entry): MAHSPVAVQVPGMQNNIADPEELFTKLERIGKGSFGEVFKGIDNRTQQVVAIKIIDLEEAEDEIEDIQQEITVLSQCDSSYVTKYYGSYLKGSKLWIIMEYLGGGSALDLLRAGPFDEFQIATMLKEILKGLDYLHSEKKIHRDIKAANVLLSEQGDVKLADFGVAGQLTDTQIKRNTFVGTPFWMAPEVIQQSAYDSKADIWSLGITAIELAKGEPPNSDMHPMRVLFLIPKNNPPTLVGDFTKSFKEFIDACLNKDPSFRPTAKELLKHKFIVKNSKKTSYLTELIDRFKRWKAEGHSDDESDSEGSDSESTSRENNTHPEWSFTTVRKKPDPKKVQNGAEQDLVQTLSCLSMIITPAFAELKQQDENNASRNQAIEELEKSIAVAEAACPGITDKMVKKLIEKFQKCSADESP
T11 sequence (Q9C098 whole entry): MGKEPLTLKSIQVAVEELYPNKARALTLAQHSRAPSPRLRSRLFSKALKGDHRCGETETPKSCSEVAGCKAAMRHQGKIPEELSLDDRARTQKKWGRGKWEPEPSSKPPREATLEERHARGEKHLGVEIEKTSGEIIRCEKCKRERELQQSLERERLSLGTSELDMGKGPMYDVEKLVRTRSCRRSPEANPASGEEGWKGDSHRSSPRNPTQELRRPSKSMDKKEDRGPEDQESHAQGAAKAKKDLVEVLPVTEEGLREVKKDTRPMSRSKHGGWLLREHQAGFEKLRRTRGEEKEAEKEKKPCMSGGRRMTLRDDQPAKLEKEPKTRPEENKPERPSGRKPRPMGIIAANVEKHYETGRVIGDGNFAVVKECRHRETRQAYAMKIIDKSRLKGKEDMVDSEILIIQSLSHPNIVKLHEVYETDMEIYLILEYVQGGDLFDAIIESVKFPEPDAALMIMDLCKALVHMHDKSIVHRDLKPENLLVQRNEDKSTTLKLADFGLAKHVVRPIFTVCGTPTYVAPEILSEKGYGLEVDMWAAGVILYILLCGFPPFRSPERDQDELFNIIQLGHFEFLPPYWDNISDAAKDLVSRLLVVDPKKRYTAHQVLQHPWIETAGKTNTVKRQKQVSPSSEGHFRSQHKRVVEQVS
T7 sequence (Q2M2I8 whole entry): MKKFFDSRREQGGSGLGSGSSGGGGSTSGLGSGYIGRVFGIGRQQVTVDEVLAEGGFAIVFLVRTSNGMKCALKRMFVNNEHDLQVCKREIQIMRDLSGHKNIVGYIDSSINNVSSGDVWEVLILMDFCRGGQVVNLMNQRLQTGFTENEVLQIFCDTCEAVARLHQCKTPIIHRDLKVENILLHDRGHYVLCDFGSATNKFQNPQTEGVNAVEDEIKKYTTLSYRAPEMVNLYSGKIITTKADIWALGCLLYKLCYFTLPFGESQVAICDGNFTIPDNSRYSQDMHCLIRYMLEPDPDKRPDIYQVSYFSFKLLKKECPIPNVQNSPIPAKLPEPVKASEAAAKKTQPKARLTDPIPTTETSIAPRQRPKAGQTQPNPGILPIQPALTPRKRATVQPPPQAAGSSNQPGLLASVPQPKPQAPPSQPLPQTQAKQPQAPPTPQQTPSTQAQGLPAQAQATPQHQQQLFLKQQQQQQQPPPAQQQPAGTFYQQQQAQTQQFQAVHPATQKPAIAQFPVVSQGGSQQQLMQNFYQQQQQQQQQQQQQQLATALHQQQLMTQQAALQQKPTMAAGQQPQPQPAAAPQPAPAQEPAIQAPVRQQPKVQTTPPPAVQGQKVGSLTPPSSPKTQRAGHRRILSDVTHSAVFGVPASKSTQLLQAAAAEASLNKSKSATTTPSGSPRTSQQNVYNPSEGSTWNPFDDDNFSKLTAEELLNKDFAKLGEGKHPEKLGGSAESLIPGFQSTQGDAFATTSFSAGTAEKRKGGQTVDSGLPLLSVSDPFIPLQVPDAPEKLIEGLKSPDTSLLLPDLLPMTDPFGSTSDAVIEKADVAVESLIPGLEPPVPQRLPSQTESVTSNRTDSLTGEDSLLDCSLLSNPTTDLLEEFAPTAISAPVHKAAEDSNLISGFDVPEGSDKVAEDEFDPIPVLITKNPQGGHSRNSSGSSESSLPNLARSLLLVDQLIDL
T8 sequence (P29597 whole entry): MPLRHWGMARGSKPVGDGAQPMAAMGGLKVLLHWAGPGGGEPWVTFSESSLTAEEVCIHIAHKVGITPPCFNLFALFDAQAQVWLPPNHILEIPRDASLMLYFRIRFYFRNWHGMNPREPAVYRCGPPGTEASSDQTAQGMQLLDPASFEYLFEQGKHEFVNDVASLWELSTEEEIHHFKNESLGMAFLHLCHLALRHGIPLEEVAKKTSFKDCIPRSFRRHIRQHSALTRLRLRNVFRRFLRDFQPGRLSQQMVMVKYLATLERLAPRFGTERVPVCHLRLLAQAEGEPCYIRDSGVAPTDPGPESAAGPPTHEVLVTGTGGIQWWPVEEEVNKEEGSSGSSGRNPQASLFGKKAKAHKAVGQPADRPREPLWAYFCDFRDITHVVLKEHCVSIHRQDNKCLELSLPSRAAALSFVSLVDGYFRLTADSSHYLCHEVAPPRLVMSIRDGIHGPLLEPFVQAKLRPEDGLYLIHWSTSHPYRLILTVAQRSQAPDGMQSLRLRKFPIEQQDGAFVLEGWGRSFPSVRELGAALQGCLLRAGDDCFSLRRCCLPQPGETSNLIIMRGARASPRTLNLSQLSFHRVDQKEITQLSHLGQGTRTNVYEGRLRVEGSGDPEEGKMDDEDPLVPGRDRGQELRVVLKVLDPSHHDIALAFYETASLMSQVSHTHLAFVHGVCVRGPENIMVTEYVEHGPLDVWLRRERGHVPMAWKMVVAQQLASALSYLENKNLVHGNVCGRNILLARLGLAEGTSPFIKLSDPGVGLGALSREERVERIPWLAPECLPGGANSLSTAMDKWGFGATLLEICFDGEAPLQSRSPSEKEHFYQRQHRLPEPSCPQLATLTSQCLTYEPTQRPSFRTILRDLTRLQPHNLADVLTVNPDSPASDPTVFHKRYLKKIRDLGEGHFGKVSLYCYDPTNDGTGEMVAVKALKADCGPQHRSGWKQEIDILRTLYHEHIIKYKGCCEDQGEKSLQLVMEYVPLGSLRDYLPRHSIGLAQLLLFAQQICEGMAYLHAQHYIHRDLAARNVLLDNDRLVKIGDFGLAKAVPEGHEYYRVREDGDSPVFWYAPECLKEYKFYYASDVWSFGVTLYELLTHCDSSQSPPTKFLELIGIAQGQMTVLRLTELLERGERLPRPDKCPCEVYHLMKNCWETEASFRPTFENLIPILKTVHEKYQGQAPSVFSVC
T4 sequence (Q00535 whole entry): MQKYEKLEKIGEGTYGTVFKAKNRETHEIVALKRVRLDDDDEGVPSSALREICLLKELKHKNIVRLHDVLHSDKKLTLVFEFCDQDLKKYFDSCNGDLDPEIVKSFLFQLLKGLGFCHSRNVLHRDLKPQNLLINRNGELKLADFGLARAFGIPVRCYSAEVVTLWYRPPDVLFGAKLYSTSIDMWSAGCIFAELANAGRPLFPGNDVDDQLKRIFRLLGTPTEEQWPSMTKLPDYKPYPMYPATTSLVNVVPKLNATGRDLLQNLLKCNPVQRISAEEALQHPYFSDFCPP

Row | SMILES | remaining binding at 10 µM (KinomeScan kinase panel [1]; PRKD3, 10 µM) [%] | score (%) (KinomeScan kinase panel [2]) | remaining binding at 10 µM (KinomeScan kinase panel [3]) [%] | remaining binding at 10 µM (KinomeScan kinase panel [4]) [%] | score (%) (KinomeScan kinase panel [5]; JAK2(JH1domain-catalytic)) | remaining binding at 10 µM (KinomeScan kinase panel [6]) [%] | remaining binding at 10 µM (KinomeScan kinase panel [7]) [%] | score (%) (KinomeScan kinase panel [8]) | score (%) (KinomeScan kinase panel [8]; [13]) | score (%) (KinomeScan kinase panel [9]) | remaining binding at 10 µM (KinomeScan kinase panel [10]) [%] | remaining binding at 10 µM (KinomeScan kinase panel [11]) [%] | remaining binding at 10 µM (KinomeScan kinase panel [12]) [%] | remaining binding at 10 µM (KinomeScan kinase panel [1]; kinase PRKD3, 10 µM) [%] | score (%) (KinomeScan kinase panel [8]; kinase TYK2(JH2domain-pseudokinase), 10 µM) | score (%) (KinomeScan kinase panel [5]; JAK2(Kin.Dom.2)) | score (%) (KinomeScan kinase panel [8]; kinase TYK2(Kin.Dom.1), 10 µM) | score (%) (KinomeScan kinase panel [8]; kinase TYK2(Kin.Dom.2), 10 µM)
1 | CCN1CCN(Cc2ccc(NC(=O)c3ccc(C)c(NC(=O)c4cncc(-c5cccs5)c4)c3)cc2C(F)(F)F)CC1 [ALW-II-41-27] | > 30 | nb (Hits values higher than 30% were considered negative (no binding: nb)) | 12 | > 30 | 11 | > 30 | > 30 | nb (Hits values higher than 30% were considered negative (no binding: nb)) | 9.8 | nb (Hits values higher than 30% were considered negative (no binding: nb)) | > 30 | > 30 | 33 |  |  |  |  | 
2 | CCN1CCN(Cc2ccc(NC(=O)c3ccc(C)c(C#Cc4cccnc4)c3)cc2C(F)(F)F)CC1 [XMD15-44] |  | 0.85% | 21 | 10 | 3 | 20 | > 30 |  | 4.2 | 10% | > 30 | > 30 | > 30 | 22 | 99 |  |  | 
3 | CCN1CCN(Cc2ccc(NC(=O)c3ccc(C)c(/C=C/c4cnc5[nH]ccc5c4Cl)c3)cc2C(F)(F)F)CC1 [HG-6-63-01, (E)-3-(2-(4-chloro-1H-pyrrolo[2,3-b]pyridin-5-yl)vinyl)-N-(4-((4-ethylpiperazin-1-yl)methyl)-3-(trifluoromethyl)phenyl)-4-methylbenzamide] | > 30 | nb (Hits values higher than 30% were considered negative (no binding: nb)) | 32 | > 30 |  | > 30 | 27 |  |  | nb (Hits values higher than 30% were considered negative (no binding: nb)) | > 30 | 2.5 | > 30 |  |  | 12 | nb (Hits values higher than 30% were considered negative (no binding: nb)) | 7

— article PMC4457528, “Identification of Novel Small Molecule Inhibitors of Oncogenic RET Kinase” (PLoS ONE, 2015)
